PubChem BioAssay AID179 (DTP/NCI, 2004)
Calls of active or inactive are those of the source.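 How the source made its calls: active means compounds giving half or more protection of infected cells from virus-caused growth loss, again on retest; inactive means the rest.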 Where a SMILES comes first, the peptide text is derived from it.

Test system: CEM cells HIV-1 protection, formazan growth assay
Assay: NCI AIDS Antiviral Assay
Conditions: for IC50: measured here: growth of uninfected CEM cells
How it was run: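 Human CEM cells, uninfected and HIV-1-infected, received five drug concentrations, and growth was read by soluble formazan assay. Compounds giving at least 50% protection were retested; reproducible 100% protection defined confirmed active.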

SMILES | EC50 | IC50 | outcome
CC(=O)[n+]1nc(-c2nc(N)nc(NC3C4CC5CC(C4)CC3C5)n2)oc1-c1ccc(Cl)cc1 (centres undefined) | > 11.2 µM | > 11.2 µM | –
c1ccc2[nH]c(C3=NCCN3)nc2c1 | > 53.7 µM | > 53.7 µM | –
CCN(CC)CC(=O)Nc1ccc(C)c(Cl)c1 | > 200 µM | 112 µM | –
CCOC(=O)C1=NN(c2ccccc2)C(=O)/C1=C\n1c(=S)sc2ccccc21 | > 100 µM | 51.3 µM | –
CN(C)CCCCC1c2ccccc2Sc2ccccc21 | > 200 µM | 8.71 µM | –
CCCCOCC(=O)C1CC[C@@H]2[C@H](CC[C@]3(C)[C@@H](O)CC[C@@H]23)[C@H]1C(=O)O (some centres undefined) | > 50.1 µM | > 50.1 µM | –
COc1ccc(CCN(C)C2CCC(C#N)(c3ccc(OC)c(OC)c3)CC2)cc1OC (centres undefined) | > 145 µM | 74.1 µM | –
N.N.N.N.O=S(=O)([O-])[O-].[Co+3].[OH3+].[OH3+] | > 39.8 µM | 38.9 µM | –
Cc1nc(N(CCO)CCO)nc2c1C(=O)Nc1ccccc1N2 | > 200 µM | 42.7 µM | –
COC1=C(C2=C(OC)C(=O)c3cc4c(c(O)c3C2=O)C(=O)OC(C)C4)C(=O)c2c(cc3c(c2O)C(=O)OC(C)C3)C1=O (centres undefined) | – | – | inactive
CC1=NNC(=O)C1C(CC(=O)c1c[nH]c2ccccc12)C(=O)O (centres undefined) | > 200 µM | 126 µM | –
O=S1(=O)C[C@H](O)[C@H](O)CS1 | 8.32 µM | 75.9 µM | –
O=c1cc(NNCc2ccccc2)[nH]c(=O)[nH]1 | > 200 µM | 57.5 µM | –
CC1(C)C(=NN=C(N)N)C(C)(C)C1=NN=C(N)N | > 50.1 µM | > 50.1 µM | –
N#Cc1c(-c2ccccc2)c(-c2ccccc2)cc2c(=O)c3ccc(Cl)cc3[nH]c12 | > 33.1 µM | > 33.1 µM | –
COC1/C=C/OC2(C)Oc3c(C)c(O)c4c(O)c(c(CNCc5ccccc5)c(O)c4c3C2=O)NC(=O)/C(C)=C\C=C\C(C)C(O)C(C)C(O)C(C)C(OC(C)=O)C1C (centres undefined) | > 200 µM | 1.51 µM | –
O=C(CCn1[nH]c(=O)c(Cl)c(Cl)c1=O)NO | > 933 µM | 832 µM | –
CCSC(=O)C1(C)OC2CCCCC2C1=O (centres undefined) | – | – | inactive
COc1cccc([N+](=O)[O-])c1N=O | > 200 µM | 102 µM | –
CN(C)c1nc(=NCc2ccccn2)ss1 | > 17.4 µM | 9.33 µM | –
O=c1[nH]c2cccccc-2c1-c1nc2ccccc2[nH]1 | > 138 µM | > 138 µM | –
CCOC(=O)C(=CNC(=S)Nc1c(CC)cccc1CC)C(=O)OCC | > 200 µM | > 200 µM | –

SMILES | EC50 | IC50 | outcome
CCOC(=O)[C@H]1Nc2ccc(C)cc2C2c3ccccc3CC21 (some centres undefined) | > 17 µM | > 17 µM | –
Cc1cc(=O)c2c([nH]1)NS(=O)(=O)NC2=O | > 1480 µM | > 1480 µM | –
O=c1c(Sc2c(SCSc3cnc4ccccc4c3Sc3c[nH]c4ccccc4c3=O)cnc3ccccc23)c[nH]c2ccccc12 | > 100 µM | > 100 µM | –
OC[C@@H]1C2CCC([C@@H]1CO)C2(Cc1ccccc1)Cc1ccccc1 | > 89.1 µM | > 89.1 µM | –
CCCCN=C(NC#N)N(Cc1ccccc1)Cc1ccccc1 | > 100 µM | 22.9 µM | –
CCCCN(CCCC)c1c([N+](=O)[O-])c(=O)nc2ccccn12 | > 794 µM | 1.7 µM | –
CC1(C)C[C@H]2[C@H](O)C(CO)=C3CC(O)C3(C)[C@H]2C1 (some centres undefined) | > 141 µM | 66.1 µM | –
Cc1cn(C(=O)NC23CC4CC(CC(C4)C2)C3)c(=O)[nH]c1=O | > 100 µM | 51.3 µM | –
COC(=O)[C@@H]1N2C(=O)C=NO[C@H]2SC1(C)C | > 1020 µM | > 1020 µM | –
CC1=C[C@@H]2c3cc(c(O)cc3O)C(=O)[C@H]3C(c4ccc(O)cc4O)CC(C)=C[C@@H]3c3cc(c(O)cc3O)C(=O)C2C(c2ccc(O)cc2O)C1 (some centres undefined) | – | – | inactive
Nc1nc(Cl)cc(NCC2CC(O)(CO)C2)n1 (centres undefined) | > 200 µM | > 200 µM | –
CN(C)c1ccc(/C=C(/C(=O)c2ccccc2)c2ccccc2)cc1 | > 15.8 µM | > 15.8 µM | –
CC(=O)Nc1cc2cc(NS(=O)(=O)c3cc(C(F)(F)F)cc(C(F)(F)F)c3)ccc2oc1=O | > 27.5 µM | > 27.5 µM | –
C(C[P+](c1ccccc1)(c1ccccc1)c1ccccc1)=C(c1ccccc1)c1ccccc1 | > 200 µM | 1.05 µM | –
O[C@H]1C=CC[C@H]2C(F)(F)[C@](F)(Cl)[C@@]12Cl | > 1000 µM | 186 µM | –
OC1(CN2CCOCC2)N=C(c2ccccc2)c2ccsc2-n2cccc21 (centres undefined) | > 200 µM | > 200 µM | –
Cc1cccc(/C=N/NC(=S)NCCc2ccccn2)n1 | > 200 µM | 20.4 µM | –
CCC(=O)NC(NNS(=O)(=O)c1ccc(C)cc1)(C(F)(F)F)C(F)(F)F | > 200 µM | 35.5 µM | –
O=C1CN=C(c2ccccn2)c2cc(Cl)ccc2N1 | > 479 µM | 72.4 µM | –
O=C(Nn1c(-c2ccccc2)nc2ccccc2c1=O)c1ccc(Cl)cc1 | > 200 µM | 120 µM | –
CCOC(=O)C(CC(C(=O)OCC)C(=O)OCC)C(=O)OCC | – | – | inactive
CNP(=O)(Oc1cc(Cl)c(Cl)cc1Cl)N1CCN(c2ccccc2)CC1 (centres undefined) | > 58.9 µM | 30.9 µM | –

SMILES | EC50 | IC50 | outcome
O=c1[nH]cc(N=Nc2ccc(S(=O)(=O)Nc3nccs3)cc2)cc1O | > 195 µM | 170 µM | –
O=C(O)c1ccc2c(c1)CC1(C2)Cc2cc3c(cc2C1=O)CCC3 (centres undefined) | > 200 µM | 85.1 µM | –
CC1=C(C)[C@]2(C)C(C)[C@]13Cn1c(=O)n(-c4ccccc4)c(=O)n1[C@@]32C (some centres undefined) | > 77.6 µM | 51.3 µM | –
Cc1cccc(CC(Cc2c(C)cccc2C(=O)O)C(=O)O)c1 (centres undefined) | > 200 µM | > 200 µM | –
CN(C)c1ccc(C=C2C(=O)NC(=O)NC2=O)cc1 | > 28.2 µM | > 28.2 µM | –
CC(=O)NC1C(OCc2ccccc2)OC(CO)C(O)C1OCC(=O)N1CCCC1C(=O)NC(CCC(=O)NCCCCCNc1c2ccccc2nc2cccc([N+](=O)[O-])c12)C(N)=O (centres undefined) | > 200 µM | 0.209 µM | –
COC(=O)C(C)(C)N=CN(C)C | > 1450 µM | > 1450 µM | –
CSc1nn(C)cc2nc(C)nc1-2 | > 200 µM | > 200 µM | –
C=C=C(Sc1ccccc1)C(C)(C)OC(C)=O | > 50.1 µM | 14.5 µM | –
CC(C)=CCC[C@@H](C)C1=C(O)C(Nc2ccccc2Br)=C(C)C(=O)C1=O | > 100 µM | 8.13 µM | –
CCCCc1ccc(Nc2cc(=O)n(C)c(=O)[nH]2)cc1 | > 200 µM | > 200 µM | –
CCC(=O)NC(Nc1cccc(F)c1)(C(F)(F)F)C(F)(F)F | > 200 µM | > 200 µM | –
CCc1cc2c(oc3cc(C)ccc32)c(=O)[nH]1 | > 100 µM | > 100 µM | –
O=C1CN(c2cccc(C(F)(F)F)c2)C(=O)CN1NCNN1CC(=O)N(c2cccc(C(F)(F)F)c2)CC1=O | > 200 µM | > 200 µM | –
O=S(=O)(O)C(O)C(O)S(=O)(=O)O (centres undefined) | > 200 µM | 79.4 µM | –
CCCc1nc(N)nc(C(=O)Nc2cccc(C(F)(F)F)c2)c1CC | > 708 µM | > 708 µM | –
Cc1ccc(NC(=O)CCc2nc(N)nc(N)c2-c2ccccc2)cc1C | > 692 µM | > 692 µM | –
Clc1ccccc1CSc1cnnc2ccccc12 | > 93.3 µM | 67.6 µM | –
O=P(O)(O)C1CCCC(P(=O)(O)O)N1 (centres undefined) | – | – | inactive
N#Cc1c(N)sc(N)c1C#N | > 200 µM | 97.7 µM | –
Cn1c(N)c(N=O)c(=O)n(C)c1=O | > 200 µM | > 200 µM | –
CSc1nc(SC)c2[nH]cnc2n1 | > 200 µM | 145 µM | –

SMILES | EC50 | IC50 | outcome
COC(=O)[C@]1(C)CC[C@]2(C)CC[C@]3(C)C4CC[C@@]56CO[C@@](O)(CCC5[C@]4(C)CCC3(C)[C@@H]2C1)[C@@H]6C (some centres undefined) | > 28.2 µM | 26.9 µM | –
COC(=O)[C@H](CC(C)C)NC(=O)[C@H](Cc1ccccc1)N1CC2C=CC1C2 (some centres undefined) | > 676 µM | > 676 µM | –
O=C1O[C@H](COC(=O)c2ccccc2)[C@@H](OC(=O)c2ccccc2)C=C1OC(=O)c1ccccc1 | > 200 µM | 20.4 µM | –
CCOC(=O)Nc1ccc2nc(Sc3ccc(C)cc3)sc2c1 | > 20.9 µM | 1.23 µM | –
Cc1ccc(Nc2nc(N)[nH]c(=O)c2N=O)cc1 | > 200 µM | 14.8 µM | –
CC(=O)Oc1cc(/C=C(\C#N)C(=O)NCCCCNC(=O)/C(C#N)=C/c2cc(OC(C)=O)c(OC(C)=O)c(OC(C)=O)c2)cc(OC(C)=O)c1OC(C)=O | > 200 µM | 21.9 µM | –
CC(=O)C(C(=O)C(=O)Nc1cc(Cl)c(Cl)cc1Cl)c1csc(N)n1 (centres undefined) | > 229 µM | > 229 µM | –
CCN1N=CSC12C(=O)N(c1ccccc1)C(=O)N2c1ccccc1 (centres undefined) | – | – | inactive
Oc1ccc2ccccc2c1CNCc1c(O)ccc2ccccc12 | > 21.9 µM | > 21.9 µM | –
CCN(CC)c1c(C)nnn1C1OC(COC(C)=O)C(OC(C)=O)C(OC(C)=O)C1OC(C)=O (centres undefined) | > 141 µM | > 141 µM | –
O=C(O)c1ccc2cc(O)ccc2c1 | > 200 µM | > 200 µM | –
CC/C(=N/OC(=O)N(CC)CC)c1ccccc1 | > 200 µM | 117 µM | –
COc1cc2c(c(OC)c1OC)C(=O)C(Br)C2NC(=O)CCCCl (centres undefined) | > 200 µM | > 200 µM | –
CC(C)N1CSC(=S)NCCNC(=S)SC1 | > 200 µM | 95.5 µM | –
Cc1c(/C=N/NC(=O)c2ccccc2O)c(=O)n(-c2ccccc2)n1C | > 200 µM | 69.2 µM | –
COC(=O)C1=NOC2C(=O)N(c3ccccc3)C(=O)C12 (centres undefined) | > 200 µM | > 200 µM | –
NC(CO)C(=O)N1CCCC1C(=O)NC(Cc1ccc(O)cc1)C(=O)N1CCCC1C(=O)NC(CO)C(=O)O (centres undefined) (H-SPYPS-OH; configuration not given here) | > 112 µM | > 112 µM | –
Cc1ncc([N+](=O)[O-])n1CCNC(=O)CCCn1ccnc1[N+](=O)[O-] | – | – | inactive
Cc1ccc(C)c(N2C(=O)C(=O)c3c(C)ccc(C)c32)c1 | > 200 µM | 33.1 µM | –
C=CCONC(=O)c1ccc(Cl)cc1 | > 617 µM | 525 µM | –
c1ccc(Nc2nnnn2-c2ccccc2)cc1 | > 200 µM | > 200 µM | –
COC(=O)C1=C2c3ccccc3-c3ccccc3C2(O)C(C(=O)OC)C1=O (centres undefined) | > 1.45 µM | > 1.45 µM | –
